Where a name gives a salt, the structure may show the parent alone.
Tests used:
[1] = system: Nrf2 signaling pathway in SH-SY5Y cells; experiment: Nrf2-regulated gene expression (RT-PCR, Western blot); type: cell-based, human; details: 10 µM, within 3 h
Protocol: Total RNA was extracted from cells using the TRIzol reagent (Invitrogen). Isolated total RNA was purified using the SV Total RNA Isolation System (Promega) according to the manufacturer’s instruction. RT-PCR was performed with QIAGEN onestep RT-PCR kit (QIAGEN). The housekeeping peptidylprolyl isomerase A (PPIA) gene was used as an internal control. PCR primers specific to each gene are as follows: ATF3, 5′-[…]-3′, and 5′-[…]-3′ (268 bp); GCLM, 5′-[…]-3′, and 5′-[…]-3′ (367 bp); HO-1, 5′-[…]-3′, and 5′-[…]-3′ (348 bp); NQO1, 5′-[…]-3′, and 5′-[…]-3′ (298 bp); Nrf2, 5′-[…]-3′, and 5′-[…]-3′ (263 bp); p21/CDKN1A, 5′-[…]-3′, and 5′-[…]-3′ (201 bp); p62/SQSTM1, 5′-[…]-3′, and 5′-[…]-3′ (330 bp); PPIA, 5′-[…]-3′, and 5′-[…]-3′ (184 bp). Amplified products were electrophoretically resolved by a 2.0% agarose gel, stained with ethidium bromide, and photographed under ultraviolet light.
SH-SY5Y cells (3×10^5 cells) were washed twice with ice-cold PBS and incubated in 1 ml of ice-cold 10% trichloroacetic acid for 30 min. Cells were centrifuged at 22,000×g for 15 min at 4°C and lysed by pipetting in 80 µl of 9 M urea containing 2% Triton X-100 and 1% dithiothreitol. After the addition of 20 µl of 10% lithium dodecyl sulfate and 2 µl of 2 M Tris base, cell lysates were sonicated until their viscosity disappeared. […]

[2] = system: ALS(SOD1^H46R) mice; experiment: Post-onset oral administration in ALS(SOD1^H46R) mice: motor function, body weight, survival; type: in vivo; details: for balance beam test: duration from onset to the day the mouse was unable to stay on the bar: n = 26, mean ± SEM (vehicle 20.7±0.7); for survival interval after onset: n = 26, mean ± SD (vehicle 36.6±6.2)
Source text: Transgenic mice carrying the H46R mutation in the human SOD1 gene; SOD1^H46R were used as a familial ALS mouse model. […] Since the genetic background is one of the important factors modulating disease phenotypes in mutant SOD1 transgenic mice, we first generated a congenic line of ALS(SOD1^H46R) transgenic mice by backcrossing more than 15 generations to B6 mice.
The lines were maintained as hemizygotes by mating ALS(SOD1^H46R) and ALS(SOD1^G93A) males with B6 females. Offspring were genotyped by PCR using genomic DNA from tail tissue. Mice were housed at 23°C with a 12 h light/dark cycle, in which water and food was available ad libitum. The condition of each animal was monitored weekly initially and then daily after disease onset. The lifespan was determined by the days from disease onset to the endpoint, in which mouse lost active and/or spontaneous movement. All animal experimental procedures were approved by the Institutional Animal Care and Use Committee at Tokai University.
WN1316 was dissolved in MQ water, and diluted with physiological saline. ALS(SOD1^H46R) transgenic mice were given WN1316 via gastric tube (CAT.No.4202, Fuchigami) at a dose of either 1 µg, 10 µg or 100 µg/5 ml/kg body weight. ALS(SOD1^G93A) transgenic mice were given 10 µg/kg WN1316. Animals simultaneously treated with physiological saline (vehicle group, 5 ml/kg) were used as controls.
To determine the onset of motor dysfunction in ALS(SOD1^H46R) transgenic mice, we adopted a balance beam test as previously described in detail. To determine the onset of motor dysfunction in ALS(SOD1^G93A) transgenic mice, we adopted both balance beam and grip strength tests. Grip strength test was assessed using a traction meter (BrainScience Idea Co., Ltd.). Each mouse was given three trials, and the highest limb strength score was recorded. For ALS(SOD1^G93A) transgenic mice, grip strength tests were started at 11 weeks of age and performed twice a week until an over 20% reduction compared with the initial limb strength score at 11 weeks of age was observed. Finally, a grade 3 in the balance beam test and over 20% reduction of limb strength score were defined as the sign of the disease onset in ALS(SOD1^G93A) transgenic mice.
The gross phenotypes were measured blindly. The body weight of each mouse was measured weekly initially and then daily after disease onset. Mice were assessed for gross behavior every week from 12 weeks of age in ALS(SOD1^H46R) mice and from 11 weeks of age in ALS(SOD1^G93A) mice until the endpoint. In particular, hind limb movement and rearing behavior of each animal were monitored weekly from 12 weeks of age until the end stage. The days from the disease onset to the endpoint were counted individually as the survival interval.
We assessed motor performance and coordination, and balance in the mice by the balance-beam test, vertical pole test, and footprint analysis as previously described in detail and grip strength test as described above. In brief, the balance-beam test was performed every day after the onset until mice were unable to stay on the bar. Each mouse was given a maximum of five vertical pole trials using the following two criteria; 1) a cutoff of 45cm and 2) the task was terminated when mouse reached the vertical ascending distance of 45 cm. The highest vertical ascending distance was scored. The footprint trial was conducted at 18 and 21 weeks of age in ALS(SOD1^H46R) mice and at 12, 16, and 20 weeks of age in ALS(SOD1^G93A) mice. Grip strength test of ALS(SOD1^H46R) mice was started at 17 weeks of age and performed once a week.
To evaluate the spontaneous motor activities in mice, we conducted cage activity and rearing performance tests by using SUPERMEX with infrared ray sensor monitor (Muromachi Kikai). […]

Cc1cc(C)c(N(C)CC(=O)Nc2nc(-c3ccccn3)c[nH]2)c(C)c1 [WN1316, 2-[mesityl(methyl)amino]-N-[4-(pyridin-2-yl)-1H-imidazol-2-yl] acetamide trihydrochloride]
mRNA of Nrf2-regulated genes (Nrf2, ATF3, HO-1, GCLM, NQO1, p21, p62) [1]: increased
balance beam test: duration from onset to the day the mouse was unable to stay on the bar ([2]; 1 µg/kg/day p.o. post-onset): 25.6 ± 0.9 days
survival interval after onset ([2]; 1 µg/kg/day p.o.): 43.8 ± 5.5 days
balance beam test: duration from onset to the day the mouse was unable to stay on the bar ([2]; 10 µg/kg/day p.o. post-onset): 26.3 ± 0.6 days
survival interval after onset ([2]; 10 µg/kg/day p.o.): 43.9 ± 4.4 days
balance beam test: duration from onset to the day the mouse was unable to stay on the bar ([2]; 100 µg/kg/day p.o. post-onset): 28.4 ± 0.8 days
survival interval after onset ([2]; 100 µg/kg/day p.o.): 45.9 ± 6.0 days
effect on mouse weight ([2]; 1, 10, 100 µg/kg/day, 12–24 weeks of age): did not affect mouse weight
prolongation of post-onset survival ([2]; 1–100 µg/kg/day p.o., vs vehicle): 20–25%
vertical pole climbing and grip strength ([2]; 1–100 µg/kg/day, 21–22 weeks of age (late symptomatic stage), vs vehicle): significant preservation of motor performance
gait on footprint analysis ([2]; 21 weeks of age (late symptomatic stage)): short but still steady gait
autopsy findings of organs such as heart and kidney ([2]; WN1316-treated mice, data not shown): no pathological abnormalities
